Laboratory results from patent US20230414637A1 (priority 2020, published 2023).
Converted amounts (≈) assume the structure as drawn. “And” between values parts separate entries of the source, which are not always exact repeats. Equal values may be shown once. Read-outs that look alike come from different tables or passages of the source.

Key:
[1] = cited from earlier work
[2] = [11]; cited from earlier work
[3] = assay type: physicochemical; settings: data and pHp theory
Source text: pH=pKa+Log10[Nic−ve]/[NicOH] Eqn 1
pHp=pKa+log(S−So)/So Eqn 4
So=the molar intrinsic solubility of the undissociated acid (NicOH), and S=the molar concentration of the salt form initially added.

[4] = test system: SARS-CoV-2 in Vero 6 cells; settings: cited from earlier work
physchem [5] = experiment: physchem
Procedure: The pKa is defined as the negative base-10 logarithm of the acid dissociation constant (Ka) of a solution). It is an important parameter to consider here because pKa and pH are equal when half of the acid has dissociated. […] Once the pKa is measured (or estimated) the well-known Henderson-Hasselbalch equation calculates the fractions of each species.

Vero E6 cells = settings: cited from earlier work
[6] = test system: human airway epithelial cells; experiment: cells; settings: Epithelial cell, read-out: IC50 for cell viability and ATP
[7] = Supersaturated solution precipitation of niclosamide: amount in solution; settings: pH 9.5, 3 mM/200 μM
[8] = test system: SARS-CoV-2 in Calu-3 cells; settings: cited from earlier work
[9] = test system: SARS-CoV-2 in Huh-7 cells; settings: infected liver Huh-7 cells, Mirabelli et al [60]; cited from earlier work
physchem [10] = experiment: physchem; remark: listed apart in the source
[11] = Equilibrium dissolution of AK Sci niclosamide versus pH (supernatant concentration by UV/Vis at 333 nm)
[12] = test system: human airway epithelial cells; settings: 300 uM
in vitro = settings: human
SARS-COV-2 syncytia = settings: Braga et al [18]; cited from earlier work
physchem [13] = settings: 20 °C, pH 9.5, aqueous buffer, kinetic from dmso stock

In the case of `O=C(Nc1ccc([N+](=O)[O-])cc1Cl)c1cc(Cl)ccc1O` [Niclosamide, 5-Chloro-N-(2-chloro-4-nitrophenyl)-2-hydroxybenzamide], the solubility ([1]; pH 6.4) is listed as 1.6 µg/mL (≈ 4.89 µM), the solubility ([1]; pH 9.1) is listed as 110 µg/mL (≈ 336 µM) and the acute oral toxicity [2] is listed as greater than 1000 mg/kg. For the same molecule, the “pH at which a 30 uM niclosamide solution can be made” value [3] was 8.16, the “pH at which a 50 uM niclosamide solution can be made” value [3] was 8.39 and the “pH at which a 200 uM niclosamide solution can be made” value [3] was 9.01 and 8.92. For the same molecule, the “pH at which a 300 uM niclosamide solution can be made” value [3] was 9.19 and 9.10, the “pH at which a 20 uM niclosamide solution can be made” value ([3]; pKa 7.12, So 2.53 uM) was 7.96 and 7.98 and the IC50 ([4]; Vero 6 cells, Braga et al [18], read-out: IC50 for viral replication) was 340 nM. The “concentration to completely prevent viral replication” value ([4]; Vero 6 cells, Brunaugh et al [91], including purported enhancement by lysozyme) was 0.4 µM, the “IC100, complete inhibition of viral replication” value ([4]; Vero 6 cells, Jeon et al [14]) was 1 µM and the IC50 ([4]; Vero 6 cells, Jeon et al [14], read-out: IC50 for viral replication) was 280 nM. For the same molecule, the IC50 ([4]; Vero E6 cells, Mostafa et al [29], read-out: IC50 for inhibiting viral replication) was 160 nM, the pKa (physchem [5]) was 6.52 and the CC50 (Vero E6 cells) was 205000 nM. For the same molecule, the “concentration to which host cell viability extended” value (Vero E6 cells) was greater than 100 µM, the IC50 [6] was 20000 to 30000 nM and the supersaturation [7] was roughly 15 times. For the same molecule, the “IC100 for inhibiting viral replication (estimated from graph)” value ([8]; Calu-3 cells, Ko et al [34]) was 2 to 3 µM, the IC50 ([8]; Calu-3 cells, Ko et al [34], read-out: IC50 for viral replication) was 840 nM and the “effect on viral replication” value ([8]; respiratory Calu-3 cells, 2.5 uM, Braga et al [18]) was “showed inhibition of viral replication”. The IC50 [9] was 140 nM, the “factor of increase of fitted logarithmic dissolution rate” value (over pH range 8.62 to 9.44, nominal 0.5 mM-1 mM) was “over 3 ×” and the “fitted logarithmic dissolution rate, factor of ln(x)” value (pH 9.44 buffer, more optimized (standardized) stirring) was 94. The solubility (physchem [10]; pH 6.4, aqueous buffer) was 4.89 µM (≈ 1.6 µg/mL), the solubility (physchem [10]; pH 9.1, aqueous buffer) was 336 µM (≈ 110 µg/mL) and the “amount of niclosamide in solution” value ([11]; pH 6-7 (tap water, saliva)) was roughly 2 µM. For the same molecule, the “conversion of added powder at high pH” value ([11]; pH 9.7, 10.0 and 10.45 carbonate-bicarbonate buffer, 1 hr stirring) was “converted to red crystalline micro-crystals”, the “airway epithelial cells still alive upon washout” value [12] was 17% and the cell death ([12]; 6 hr) was 83%. The viability at 300 uM (in vitro) was 30%, the “effect on syncytia in vitro” value (SARS-COV-2 syncytia) was “protected against syncytia in vitro” and the solubility kinetic (physchem [13]) was 3000 µM (≈ 981 µg/mL).
